The source of these data is US12338199B2, “Bis-octahydrophenanthrene carboxamides and protein conjugates thereof” (REGENERON PHARMACEUTICALS, INC., priority 2017, dated 2025).

Each structure is given as a SMILES string. Like-named read-outs stand apart in the source and are kept apart here.

As usually defined, the IC50 is the concentration at which inhibition is half-maximal.

Data set [1] in a line: Water solubility and pH stability of phosphate analogs. Type of data set: physicochemical. The settings on record: for Stability: pH as given in the value, 17c converted to 17b in the presence of methanol. The text has this: The phosphoric acid-analog 17a was obtained from the treatment of phenol 9g with diphosphoryl chloride 18. Compounds 17b and 17c were obtained from the acidic deprotection of 17a with TFA.

Another data set addresses T1, LXR alpha (Homo sapiens, UniProt Q13133).
T1 construct: LXR alpha or beta LBD-GST; purchased ThermoFisher PV4655
T1 sequence (Q13133 209-447 limits assumed): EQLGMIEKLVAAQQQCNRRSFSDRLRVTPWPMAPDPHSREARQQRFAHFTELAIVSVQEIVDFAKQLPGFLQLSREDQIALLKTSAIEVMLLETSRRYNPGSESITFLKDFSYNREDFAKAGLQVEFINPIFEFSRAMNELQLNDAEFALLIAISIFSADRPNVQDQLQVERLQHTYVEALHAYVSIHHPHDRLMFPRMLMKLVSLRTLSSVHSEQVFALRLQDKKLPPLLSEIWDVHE
The data set is described as follows: LanthaScreen TR-FRET LXR alpha Coactivator Assay (cell-free binding). On the procedure: (§1) To evaluate the ability of novel LXR agonists to bind to the LXR alpha and beta receptor, a cell-free binding assay was performed using a LanthaScreen TR-FRET LXR alpha Coactivator Assay Kit (ThermoFisher, Cat # PV4655) and LXR beta Coactivator Assay Kit (ThermoFisher, Cat # PV4658). The assay was performed according to the manufacturer's instructions. Briefly, a 3-fold serial dilution of LXR agonists were prepared in 100% DMSO starting at 100 μM (100× of final). Serial dilutions were further diluted 50-fold in nuclear receptor buffer F with 5 mM DTT, and transferred to a 384-well assay plate. Next, Fluorescein-D22, LXR alpha or beta LBD-GST, and Tb anti-GST antibody was sequentially added to 384-well assay plate. The plate was then incubated at rt for 2.5 hours while being protected from light. […] The IC50 values were determined using a four-parameter logistic equation over a 12-point response curve (GraphPad Prism).

The next data set addresses T2, LXR beta (Homo sapiens, UniProt P55055).
T2 construct: LXR alpha or beta LBD-GST; purchased ThermoFisher PV4658
T2 sequence (P55055 222-460 limits assumed): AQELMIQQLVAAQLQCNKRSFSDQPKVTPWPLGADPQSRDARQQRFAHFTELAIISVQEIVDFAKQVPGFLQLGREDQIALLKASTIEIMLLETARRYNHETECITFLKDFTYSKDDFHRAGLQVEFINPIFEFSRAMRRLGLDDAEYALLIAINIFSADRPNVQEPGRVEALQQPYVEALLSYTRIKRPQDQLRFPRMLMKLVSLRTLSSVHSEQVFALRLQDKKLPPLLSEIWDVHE
The data set is described as follows: LanthaScreen TR-FRET LXR beta Coactivator Assay (cell-free binding). As for the experimental part: as §1
A general note: In TR-FRET formats the signal depends on donor and acceptor labels being close together.

The test system of data set [2] is THP1/LXR-Luc cells. Briefly: THP1/LXR-Luc luciferase reporter bioassay. The settings on record: Homo sapiens, THP-1, 48 hours; for EC50: read-out: Activation of THP1/LXR-Luc cells: EC50; for Emax: relative to maximum activation of free payload 9d, read-out: Activation of THP1/LXR-Luc cells: Fold of activation. Type of data set: cell-based. The text has this:
The fold activation in the cell-based assays (as described in Example 68, below) was defined based on the maximum activation of the free payload 9d.
(§2) A bioassay was developed to assess the activity of LXR agonists after internalization of an agonist or of a ncADC into cells and binding to LXR, a nuclear receptor, using a commercially available LXR reporter (referred to as LXR-Luc) that contains the firefly luciferase gene under control by minimal CMV promoter and tandem repeats of the LXR transcriptional response element. For this assay, a THP1 cell line, which is a human monocytic leukaemia line, was engineered to express full length human Her2 (expressing amino acids M1 through V1255 of accession number NP_004439.2). The subsequent stable cell line was further transduced with a Cignal LXR Luc Reporter (Qiagen, Cat # CLS-7041L). The resulting stable cell line is referred to herein as THP1/Her2/LXR-Luc. The Her2 cell surface expression on THP1/Her2/LXR-Luc cell line was confirmed by FACS (data not shown).
Additionally, a THP1 cell line was transduced with a Cignal LXR Luc Reporter (Qiagen, Cat # CLS-7041L) without the addition of Her2. The resulting stable cell line is referred to herein as THP1/LXR-Luc. All of the antibodies used in the subsequent bioassays were assessed for their ability to internalize and release a payload on the bioassay cell line used.
(§3) This example assessed the ability of the LXR agonists provided herein, reference compounds, and anti-Her2 antibody-LXR ncADC to activate LXR. The samples were tested in the THP1/LXR-Luc/Her2 bioassay. For the assay, either THP1/LXR-Luc cells or THP1/LXR-Luc/Her2 cells were seeded onto white 96 well plates at 30,000 cells/well in media containing RPMI supplemented with 10% FBS and pencillin/streptomycin (complete media). Subsequently 3-fold serial dilutions of antibody drug conjugates, unconjugated antibodies, or free payloads were added to the cells at final concentration ranging from 100 nM to 0.01 nM. After 48-hour or 72-hour incubation, luciferase activity was determined after the addition of One-Glo™ reagent (Promega, Cat # E6130) to each well of cells. Relative light units (RLUs) were measured on a Victor luminometer (PerkinElmer) and the EC5o values were determined using a four-parameter logistic equation over a 10-point dose response curve (GraphPad Prism) (FIG. 15). The fold activation is calculated based on the maximum activation of the free payload 9d.
On the technique in general: A reporter such as luciferase makes a cellular process visible.

For a further data set, the system named is THP1/LXR-Luc/Her2 cells. Briefly: THP1/LXR-Luc/Her2 luciferase reporter bioassay. The format is cell-based. The conditions noted are these: Homo sapiens.
Source text: as §2, §3

The test system of the next data set is ABCA1. The data set is described as follows: ABCA1 mRNA induction in differentiated THP-1 macrophages (TaqMan). Type of data set: cell-based, human. The settings on record: THP1 macrophages, 24-hour treatment; magnitude in words. As for the experimental part: (§4) To determine the ability of LXR agonists to activate ABCA1 and ABCG1 genes, the mRNA levels of these two genes in differentiated macrophages was measured. […] Cells were differentiated into macrophages by treatment with 100 nM Phorbol-12 myristate 13-acetate (Sigma, # P8139), which was added to the media described above, for 72 hours. […] Chloroform was then used for phase separation. The aqueous phase, containing total RNA, was purified using MagMAX™-96 for Microarrays Total RNA Isolation Kit (Ambion, Cat # AM1830) and reverse-transcribed into cDNA using SuperScript® VILO™ Master Mix (Invitrogen, Cat #11755050) as per the manufacturer's instructions. TaqMan® was performed using Gene Expression Master Mix, the ABI 7900HT Sequence Detection System (Applied Biosystems) and the primers and probes indicated below in Table 9. The GAPDH gene was used as the internal control gene to normalize any cDNA input differences.

The subject of a further data set is ABCG1. Briefly: ABCG1 mRNA induction in differentiated THP-1 macrophages (TaqMan). Type of data set: cell-based, human. The conditions noted are these: THP1 macrophages, 24-hour treatment; magnitude in words. As for the experimental part:
as §4
For orientation: In qPCR the cycle at which signal appears reflects the starting amount.

Data set [3] relates to THP1/LXR-Luc cells. The data set is described as follows: LXR-luciferase reporter bioassay in PMA-differentiated THP1/LXR-Luc cells. Type of data set: cell-based, human. The settings on record: for EC50: Homo sapiens, THP-1, 48 h, read-out: EC50. The text has this:
To test the efficacy of anti-MSR1 antibody-LXR conjugates in vitro, a cell-based LXR responsive luciferase reporter assay was developed. To generate the assay cell line, a LXR regulated luciferase reporter gene [Cignal Lenti LXR Reporter (luc) kit (Qiagen, Cat # CLS-001L)] was transduced into THP1 cells, and cells were selected for two weeks in puromycin. The lentivirus expresses the firefly luciferase gene under the control of a minimal CMV promoter and tandem repeats of the LXR transcriptional response element. The resulting cell line is referred to as THP1/LXR-Luc cells.
THP1/LXR-Luc cells were seeded onto 96 well plates at 40,000 cells/well in media containing RPMI supplemented with 10% FBS and pencillin/streptomycin and subsequently differentiated with 200 nM Phorbol Myristate Acetate (PMA) for 3 days. After the 3-day differentiation period, three-fold serial dilutions of antibody drug conjugates, unconjugated antibodies, or free payloads in fresh media were added to the cells at final concentration ranging from 100 nM to 0.01 nM. Media alone served as a blank control. Forty-eight hours later, luciferase activity was determined after the addition of One-Glo™ reagent (Promega, Cat # E6130) to each well. Relative light units (RLUs) were measured on a Victor luminometer (PerkinElmer) and EC50 values were determined using a four-parameter logistic equation over a 10-point dose response curve (GraphPad Prism). The signal to noise (S/N) was determined by calculating the ratio of RLU of standard one over RLU of standard eight for each of the unconjugated anti-MSR1 antibodies or free payloads. “LP #” represents a linker-payload for which the corresponding structures are provided elsewhere herein, and “P #” represents a payload for which the corresponding structures are provided elsewhere herein.

[4] abbreviates: TR-FRET, 12-point curve, read-out: Cell free binding LXRα IC50.
Setting [5] is: TR-FRET, 12-point curve, read-out: Cell free binding LXRβ IC50.
Where [6] appears, read: THP-1, 48 h, 48-hour time point.
Setting [7] is: THP-1, 48 h, 48 hours, unit inferred, values correspond to M.
[8] abbreviates: THP-1, 72 h, 72-hour time point.

Turning to `C[C@]1(C(=O)NC(=O)[C@@]2(C)CCC[C@]3(C)c4cc(OP(=O)(O)O)ccc4CC[C@@H]23)CCC[C@]2(C)c3cc(N)ccc3CC[C@@H]12` [Compound 17c, (4bS,8S,8aR)-8-((1S,4aS,10aR)-6-Amino-1,4a-dimethyl-1,2,3,4,4a,9,10,10a-octahydrophenanthrene-1-carbonylcarbamoyl)-4b,8-dimethyl-4b,5,6,7,8,8a,9,10-octahydrophenanthren-3-yl dihydrogen phosphate], the Stability result in data set [1] is “not stable at pH 5”. In addition, in data set [1] (under basic and neutral conditions), the Solubility in water entry is reported as “soluble in water”. On LXR alpha, this compound showed a half-inhibitory concentration (IC50) above 100000 pM. The compound also gave an IC50 at LXR beta below 10000 pM. In addition, in the data set with THP1/LXR-Luc cells [2], the EC50 was at most 1000 pM and the Emax is above 75%.

Regarding `COP(=O)(O)Oc1ccc2c(c1)[C@@]1(C)CCC[C@](C)(C(=O)NC(=O)[C@@]3(C)CCC[C@]4(C)c5cc(N)ccc5CC[C@@H]34)[C@@H]1CC2` [Compound 17b, (4bS,8S,8aR)-8-((1S,4aS,10aR)-6-Amino-1,4a-dimethyl-1,2,3,4,4a,9,10,10a-octahydrophenanthrene-1-carbonylcarbamoyl)-4b,8-dimethyl-4b,5,6,7,8,8a,9,10-octahydrophenanthren-3-yl methyl hydrogen phosphate], the Stability result in data set [1] is reported as “stable at pH 5-8”. Also, on LXR alpha, the IC50 fell in the range of 10000 to 100000 pM. The compound also gave an IC50 at LXR beta below 10000 pM. Moreover, in the data set on THP1/LXR-Luc cells [2], the EC50 was 10000 to 100000 pM and the Emax is above 75%.

`C[C@]1(C(=O)NC(=O)[C@@]2(C)CCC[C@]3(C)c4cc(NC(=O)CN)ccc4CC[C@@H]23)CCC[C@]2(C)c3cc(O)ccc3CC[C@@H]12` [Compound 9h, (1S,4aS,10aR)-6-(2-Aminoacetamido)-N-((1S,4aS,10aR)-6-hydroxy-1,4a-dimethyl-1,2,3,4,4a,9,10,10a-octahydrophenanthrene-1-carbonyl)-1,4a-dimethyl-1,2,3,4,4a,9,10,10a-octahydrophenanthrene-1-carboxamide]: the concentration for half-maximal inhibition (IC50) on LXR alpha (setting [4]) and at LXR beta (setting [5]) was below 1000 pM throughout. Also, the EC50 with THP1/LXR-Luc cells [2] is at most 1000 pM; in the data set with THP1/LXR-Luc/Her2 cells (setting [6]), 500 pM; in the data set with THP1/LXR-Luc/Her2 cells (setting [7]) it was 500 pM; in the data set on THP1/LXR-Luc/Her2 cells (setting [8]) it was 650 pM; in the data set on THP1/LXR-Luc/Her2 cells (THP-1, 72 h, 72 hours) it was 650 pM. For the same compound, in the data set on THP1/LXR-Luc cells [2], the Emax was above 75%. In addition, the “ABCA1 induction EC50” value in the data set on ABCA1 is “sub-picomolar”. Also, the “ABCG1 induction EC50” value with ABCG1 was “sub-picomolar”.

Regarding `C[C@]1(C(=O)NC(=O)[C@@]2(C)CCC[C@]3(C)c4cc(NC(=O)[C@@H](N)CO)ccc4CC[C@@H]23)CCC[C@]2(C)c3cc(O)ccc3CC[C@@H]12` [Compound 9j, (1S,4aS,10aR)-6-((S)-2-Amino-3-hydroxypropanamido)-N-((1S,4aS,10aR)-6-hydroxy-1,4a-dimethyl-1,2,3,4,4a,9,10,10a-octahydrophenanthrene-1-carbonyl)-1,4a-dimethyl-1,2,3,4,4a,9,10,10a-octahydrophenanthrene-1-carboxamide], the IC50 at LXR alpha (setting [4]) and at LXR beta (setting [5]) was below 10000 pM in each case. The EC50 was at most 1000 pM in the data set with THP1/LXR-Luc cells [2]; 390 pM in the data set with THP1/LXR-Luc/Her2 cells (setting [6]); 390 pM with THP1/LXR-Luc/Her2 cells (setting [7]); 470 pM with THP1/LXR-Luc/Her2 cells (setting [8]); 470 pM in the data set with THP1/LXR-Luc/Her2 cells (THP-1, 72 h, 72 hours); 370 to 2090 pM in the data set on THP1/LXR-Luc cells [3] (48-hour time point, stimulation of THP1/Luc cells). Further, the EC50 in the data set on THP1/LXR-Luc cells [3] (PMA-differentiated THP1/LXR-Luc cells, 48 hours, luciferase activity (One-Glo), 10-point dose response 100 nM to 0.01 nM) came to 460 pM. The Emax in the data set with THP1/LXR-Luc cells [2] was above 75%. In the data set on THP1/LXR-Luc cells [3] (PMA-differentiated THP1/LXR-Luc cells, 48 hours, luciferase activity), the “S/N (signal to noise, ratio of RLU of standard one over RLU of standard eight)” value was 5.7.
